Laboratory results published in ChEMBL document CHEMBL1667854, “6''-Azido-6''-deoxy-UDP-N-acetylglucosamine as a glycosyltransferase substrate” (Bioorg Med Chem Lett, 2011).
Calls of active or inactive are those of the source. No cut-off for these calls is given here.

Biological target: T1, UDP-N-acetylglucosamine--peptide N-acetylglucosaminyltransferase 110 kDa subunit (Homo sapiens) (UniProt O15294)
T1 sequence (whole entry): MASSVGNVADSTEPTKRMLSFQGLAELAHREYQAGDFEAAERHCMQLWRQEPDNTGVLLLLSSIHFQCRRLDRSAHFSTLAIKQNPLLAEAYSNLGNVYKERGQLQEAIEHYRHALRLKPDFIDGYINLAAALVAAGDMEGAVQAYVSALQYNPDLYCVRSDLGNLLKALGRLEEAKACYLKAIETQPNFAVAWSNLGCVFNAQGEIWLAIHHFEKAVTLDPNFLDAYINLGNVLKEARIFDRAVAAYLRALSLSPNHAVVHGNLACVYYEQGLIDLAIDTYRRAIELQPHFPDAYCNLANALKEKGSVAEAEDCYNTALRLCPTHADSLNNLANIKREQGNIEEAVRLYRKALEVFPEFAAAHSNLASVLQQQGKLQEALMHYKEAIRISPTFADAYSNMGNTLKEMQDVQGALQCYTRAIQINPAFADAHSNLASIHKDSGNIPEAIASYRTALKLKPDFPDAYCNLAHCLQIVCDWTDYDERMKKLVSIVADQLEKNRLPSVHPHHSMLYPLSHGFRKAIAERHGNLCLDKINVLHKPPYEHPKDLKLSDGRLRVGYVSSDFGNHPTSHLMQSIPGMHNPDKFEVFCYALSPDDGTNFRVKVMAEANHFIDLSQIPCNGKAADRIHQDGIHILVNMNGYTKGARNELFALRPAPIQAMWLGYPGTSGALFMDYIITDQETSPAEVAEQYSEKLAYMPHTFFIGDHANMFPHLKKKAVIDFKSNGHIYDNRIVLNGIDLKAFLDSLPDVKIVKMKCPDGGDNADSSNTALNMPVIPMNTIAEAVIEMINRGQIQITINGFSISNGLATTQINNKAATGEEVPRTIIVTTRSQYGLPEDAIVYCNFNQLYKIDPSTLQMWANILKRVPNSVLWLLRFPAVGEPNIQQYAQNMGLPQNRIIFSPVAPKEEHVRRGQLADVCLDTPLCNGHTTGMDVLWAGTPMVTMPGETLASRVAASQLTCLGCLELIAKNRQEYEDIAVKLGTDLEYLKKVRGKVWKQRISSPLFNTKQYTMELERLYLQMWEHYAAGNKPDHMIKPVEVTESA
Assay: Activity at human OGT by Western blot analysis

Row | Structure (SMILES) | Activity
1 | CC(=O)N[C@H]1[C@@H](OP(=O)(O)OP(=O)(O)OC[C@H]2O[C@@H](n3ccc(=O)[nH]c3=O)[C@H](O)[C@@H]2O)O[C@H](CN=[N+]=[N-])[C@@H](O)[C@@H]1O | Active
2 | CC(=O)N[C@@H]1[C@@H](O)[C@H](O)[C@@H](CN=[N+]=[N-])O[C@@H]1O | Active
